The values that follow come from publication PMC8602566 (Frontiers in Oncology, 2021).

Data set [1] concerns Human glioblastoma cell line U251. The data set can be described thus: MTT cell viability assay, U251. Format: cell-based. Conditions: U-251, 72 h, read-out: IC50 antiproliferative activity U251. On the procedure:
(§1) Cell viability was measured using the 3-(4,5-dimethylthiazol-2-yl)-2,5-diphenyltetrazolium bromide (MTT) assay and was expressed as a ratio to the absorbance value at 570 nm of the control cells.
A general note: Formazan colour is commonly taken as a measure of viable cells.

Data set [2] deals with Human glioma cell line SHG44. Nature of the data set: MTT cell viability assay, SHG44. Format: cell-based. Conditions: SHG-44, 72 h, read-out: IC50 antiproliferative activity SHG44. On the procedure:
as §1

Data set [3] in a line: Hepatic microsome stability assay, human. Conditions: human liver microsomes, NADPH, 37°C, pH 7.4. In kind it is in vitro ADME. On the procedure: (§2) Metabolic stability was assessed in the presence of human, mouse, and rat liver microsomes (XenoTech, Lenexa, KS, USA). All liquid dispenses and transfer steps were performed with the Freedom Evo automated liquid handler (Tecan US). Compound stock solutions were initially prepared in 100% DMSO and subsequently diluted in acetonitrile for the assay. The pH of the reactions was kept at 7.4 with potassium phosphate buffer. The reaction wells were prepared by adding microsomes to a well and allowed to warm to 37°C. Then, compound was added to each well. The reactions were […] by adding cofactor reduced nicotinamide adenine dinucleotide phosphate (NADPH) to the reaction well containing microsomes and compounds. Negative controls received buffer only. Immediately after reactions started, 0-min aliquots were promptly collected and mixed in a separate well with ice cold acetonitrile to quench the reactions. The remainder of the reaction volume was incubated at 37°C with shaking. An additional aliquot was collected at 60 min after the start of the reaction and promptly quenched with ice cold acetonitrile. Samples were vortexed and centrifuged at 3,500 rpm for 10 min. The amount of compound in the supernatant was determined by liquid chromatography–tandem mass spectrometry (LC/MS/MS) (Thermo Fischer Scientific, San Jose, CA, USA), and the percent of parent compound remaining after 60 min was calculated. Results are the mean of each reaction triplicate, normalized to the internal standard, and expressed as the percent of compound remaining after the incubation time.
(§3) Structures that are active in vitro may not be potent in vivo due to their susceptibility to metabolism in the body. We then thoroughly examined the liver microsomal metabolic stability of DMC-HA across three different species (Table 3). […] In addition, the half-life of DMC-HA in human microsome is generally two to three times longer than those in mice and rats. Collectively, the in vitro liver microsomal stability of DMC-HA is favorable, guaranteeing its further in vivo studies.

The test system of data set [4] is Human lung cancer cell line A549. Nature of the data set: MTT cell viability assay, A549. Format: cell-based. Conditions: A549, 72 h, read-out: IC50 antiproliferative activity A549. On the procedure:
as §1

Data set [5] can be described thus: Hepatic microsome stability assay, mice. Conditions: mouse liver microsomes, NADPH, 37°C, pH 7.4. In kind it is in vitro ADME. On the procedure:
as §2, §3
Background: Liver microsomes are vesicles of endoplasmic reticulum, rich in cytochrome P450 enzymes.

Data set [6] has as its system all eight cell lines. The data set can be described thus: Antiproliferative activity, panel of eight cancer cell lines (summary). Conditions: Homo sapiens, read-out: IC50 values against all eight cell lines. In kind it is cell-based. As for the experimental part:
Cells (5 × 10^4) were seeded into 96-well plates and exposed to vehicle (PBS) or different concentrations of compounds for 72 h. Cell viability was measured using the 3-(4,5-dimethylthiazol-2-yl)-2,5-diphenyltetrazolium bromide (MTT) assay and was expressed as a ratio to the absorbance value at 570 nm of the control cells.
As DMC-HA was identified as a potent novel inhibitor for HDACs, its antiproliferative activities on a panel of cancer cell lines and normal cells were evaluated, including four glioma cell lines, and the results are shown in Table 2. Vorinostat and curcumin were also tested as positive controls. […].

Data set [7] relates to Human umbilical vein endothelial cells HUVEC. The data set can be described thus: MTT cell viability assay, HUVEC. Format: cell-based. Conditions: Homo sapiens, HUVEC, 72 h, read-out: IC50 HUVEC. As for the experimental part: as §1
Data set [8] concerns Human colon carcinoma cell line SW-620. Nature of the data set: MTT cell viability assay, SW-620. Conditions: SW-620, 72 h, read-out: IC50 antiproliferative activity SW-620. In kind it is cell-based. On the procedure: as §1
Data set [9] can be described thus: Hepatic microsome stability assay, rat. In kind it is in vitro ADME. Conditions: rat liver microsomes, NADPH, 37°C, pH 7.4. As for the experimental part:
as §2, §3

Data set [10] concerns Human liver cancer cell line HepG2. The data set can be described thus: MTT cell viability assay, HepG2. In kind it is cell-based. Conditions: HepG2, 72 h, read-out: IC50 antiproliferative activity HepG2. On the procedure:
as §1

Data set [11] relates to Human glioma cell line LN229. Nature of the data set: MTT cell viability assay, LN229. Conditions: LN-229, 72 h, read-out: IC50 antiproliferative activity LN229. Format: cell-based. As for the experimental part:
as §1

The subject of data set [12] is Human glioblastoma cell line U87. Nature of the data set: MTT cell viability assay, U87. Format: cell-based. Conditions: 72 h, read-out: IC50 antiproliferative activity U87. As for the experimental part:
Human GBM U87 cell line was purchased from the American Type Culture Collection (ATCC). Cells were cultured in Dulbecco’s modified Eagle’s medium (DMEM) supplemented with 10% fetal bovine serum (FBS) and maintained in a 37°C, 5% CO2 incubator. After cells were routinely passaged at 2- to 3-day intervals, experiments were carried out when the cells entered exponential growth phase.
as §1

Data set [13] relates to Human leukemia cell line K562. The data set can be described thus: MTT cell viability assay, K562. Format: cell-based. Conditions: K562, 72 h, read-out: IC50 antiproliferative activity K562. As for the experimental part:
as §1

Data set [14] has as its target SIRT1 (Homo sapiens, UniProt Q96EB6). The data set can be described thus: HDACs inhibition assay, SIRT1.
Procedure: The inhibition assays for HDACs were carried out according to standard protocols. […] The reaction was stopped by the addition of 45 μl of 100 mM HEPES (pH 7.5) and 0.08% sodium dodecyl sulfate (SDS). The substrate and the product were then separated electrophoretically using a LabChip 3000 system (Caliper Life Sciences, Hopkinton, MA) with blue laser excitation and green fluorescence detection.
In data set [15] the test system is U87 tumor xenograft. Conditions: nude mice, 20 mg/kg once daily. The text has this: Six-week-old BALB/c nude mice were purchased from Shanghai Experimental Animal Center of Chinese Academy of Science (Shanghai, China). All animal protocols were implemented according to the guidelines of the Association for Assessment and Accreditation of Laboratory Animal Care. U87 cells (3 × 10^6) were subcutaneously implanted into the right flank of mice. After 6 days of tumor growth, tumors grew to approximately 100 mm^3, and mice were randomly divided into three groups with nine animals in each group. […] The control group was intraperitoneally injected an equal volume of DMSO. Body weights and tumor volumes were measured every 2 days. After treatment, all of the mice were sacrificed, and the tumors were harvested, weighted, and photographed. The tumor volume was calculated according the formula: tumor volume = (length × width^2)/2.
U87 cells were subcutaneously inoculated into the right flank of mice.

Data set [16] concerns acetylated histone H3 in U87 cells. Nature of the data set: Western blot analysis for H3-histone acetylation. Format: cell-based, Human. Conditions: various concentrations, 24 h. On the procedure: U87 cells (5 × 10^5 cells/ml) in six-well plates were incubated with DMC-HA and lysed in radioimmunoprecipitation assay (RIPA) buffer containing protease and phosphatase inhibitors. Protein contents in the lysates were determined by Bradford’s assay, and 50 μg was separated by SDS polyacrylamide gel electrophoresis (SDS-PAGE) electrophoresis. Proteins were transferred to membranes and probed with human anti-acetylated H3 and anti-β actin antibodies as a loading control. Membranes were then labeled with the appropriate horseradish peroxidase (HRP)-conjugated immunoglobulin G (IgG), and protein bands were visualized using enhanced chemiluminescence. (Bio-Rad, Hercules, CA, USA).
Next, DMC-HA-induced acetylation of histone H3 in living cells was analyzed using Western blot method.

SIRT1, sequence (Q96EB6 whole entry): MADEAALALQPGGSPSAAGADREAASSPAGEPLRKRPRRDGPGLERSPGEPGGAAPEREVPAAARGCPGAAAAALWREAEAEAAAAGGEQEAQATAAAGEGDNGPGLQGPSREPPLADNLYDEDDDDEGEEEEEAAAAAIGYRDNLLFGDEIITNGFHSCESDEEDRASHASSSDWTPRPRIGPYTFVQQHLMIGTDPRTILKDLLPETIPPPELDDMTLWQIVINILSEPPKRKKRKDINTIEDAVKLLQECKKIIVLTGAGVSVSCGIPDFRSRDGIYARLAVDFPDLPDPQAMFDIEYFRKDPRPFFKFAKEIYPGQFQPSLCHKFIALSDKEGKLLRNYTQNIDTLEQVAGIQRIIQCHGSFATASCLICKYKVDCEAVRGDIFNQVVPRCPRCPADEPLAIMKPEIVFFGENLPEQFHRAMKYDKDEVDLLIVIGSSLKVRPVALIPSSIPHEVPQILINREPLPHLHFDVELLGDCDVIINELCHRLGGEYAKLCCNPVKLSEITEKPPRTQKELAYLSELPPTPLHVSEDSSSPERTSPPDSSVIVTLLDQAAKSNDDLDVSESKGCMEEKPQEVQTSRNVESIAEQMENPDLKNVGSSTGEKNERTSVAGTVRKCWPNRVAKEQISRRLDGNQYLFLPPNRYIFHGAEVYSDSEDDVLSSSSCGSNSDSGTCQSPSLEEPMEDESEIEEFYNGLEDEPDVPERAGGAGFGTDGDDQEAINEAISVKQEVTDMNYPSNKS

Usually IC50 stands for the midpoint of a concentration-inhibition curve. Broadly, the microsomal CLint is the rate of metabolic loss divided by the concentration. Low readings indicate greater metabolic stability, high ones faster metabolism. On to `COc1cc(/C=C/C(=O)CC(=O)/C=C/c2ccc(O)c(OC)c2)ccc1O` [Curcumin, reference compound], for which the IC50 in data set [1] is 27.6 ± 3.11 µM; in data set [2], 24.6 ± 4.52 µM; in data set [4] it was 32.9 ± 3.99 µM; in data set [6] it was 16.4 to 49.2 µM; in [7], 58.5 ± 7.92 µM; in [8], 49.2 ± 7.42 µM. In addition, the IC50 in data set [10] stood at 18.3 ± 3.21 µM; in data set [11] it was 21.9 ± 4.65 µM; in data set [12] it was 31.9 ± 2.9 µM; in data set [13], 16.4 ± 1.23 µM. Further, the microsomal CLint in data set [3] was determined as 82 µL/min/mg; in data set [5], 92.9 µL/min/mg; in [9] it was 138 µL/min/mg. The half-life in [3] (read-out: Human Liver Microsomal Stability T1/2) was determined as 17.2 min; in data set [5] (read-out: Mice Liver Microsomal Stability T1/2), 15.3 min; in [9] (read-out: Rat Liver Microsomal Stability T1/2) it was 10.4 min.

On to `O=C(CCCCCCC(=O)Nc1ccccc1)NO` [Vorinostat, suberoylanilide hydroxamic acid, reference compound], for which the IC50 in [14] was > 10 µM. In [15], the “effects on the body weight” value is “no effects on the body weight” and the “toxicity during the administration period” value is listed as “no observable toxicity”. Moreover, in data set [16], the “acetylation of histone H3, dose dependence” value was “dose dependently increased the acetylation of histone H3”.
